According to ChEMBL document CHEMBL1127865, “C-linked pyrazole biaryl tetrazoles as antagonists of angiotensin II Part II: pharmacokinetics and an efficient regioselective synthesis” (Bioorg Med Chem Lett, 1994):

Legend:
Format in all cases: ADME, organism-based
[1] = Compound was evaluated for plasma half life in rat
[2] = Compound was evaluated for volume of distribution in rat; conditions: in vivo
[3] = Oral bioavailability in rat; conditions: in vivo
[4] = Compound was evaluated for plasma clearance in rat; conditions: read-out: Clp

Row | half-life [1] [min] | Vd [2] [L/kg] | bioavailability [3] [%] | clearance [4] [mL/min/kg] | Structure (SMILES)
1 | 888 | 0.16 | 26 | 0.12 | CCCCc1nn(CCCC)c(C(=O)O)c1Cc1ccc(-c2ccccc2-c2nn[nH]n2)cc1
2 | 738 | 0.2 | 58 | 0.2 | CCCCc1nn(CC2CC2)c(C(=O)O)c1Cc1ccc(-c2ccccc2-c2nn[nH]n2)cc1
